ChEMBL document CHEMBL3885881, “DrugMatrix”

Species: Rattus norvegicus
Test: DrugMatrix - Regimen: Daily Repeat
Assay type: toxicity, organism-based, Sprague-Dawley
Set-up: regimen Daily Repeat, gender Male, age 6-8 weeks
Settings: in vivo, po, route oral GAVAGE, vehicle 100 % WATER; for ABSOLUTE BASOPHIL / ABSOLUTE EOSINOPHIL / ABSOLUTE LYMPHOCYTE / ABSOLUTE MONOCYTE / ABSOLUTE SEGMENTED NEUTROPHIL / BASOPHIL / EOSINOPHIL / ERYTHROCYTE COUNT / HEMATOCRIT / HEMOGLOBIN / LEUKOCYTE COUNT / LYMPHOCYTE / MEAN CORPUSCULAR HEMOGLOBIN / MEAN CORPUSCULAR HEMOGLOBIN CONCENTRATION / MEAN CORPUSCULAR VOLUME / MONOCYTE / NEUTROPHIL / NUCLEATED RED BLOOD CELLS / PLATELET COUNT: tissue Blood; for ALANINE AMINOTRANSFERASE / ALBUMIN / ALKALINE PHOSPHATASE / ASPARTATE AMINOTRANSFERASE / BLOOD UREA NITROGEN / CARBON DIOXIDE / CHLORIDE / CHOLESTEROL / CREATINE PHOSPHOKINASE / CREATININE / GLUCOSE / LACTATE DEHYDROGENASE / LIPASE / PHOSPHORUS / POTASSIUM / SODIUM / TOTAL BILIRUBIN / TOTAL PROTEIN / URIC ACID: tissue Plasma
[1] = 46 mg/kg, 72 h, dose level High, time 3 day
[2] = 46 mg/kg, 120 h, dose level High, time 5 day
[3] = […], 72 h, dose 4.6 mg/Kg, dose level Low, time 3 day
[4] = […], 120 h, dose 4.6 mg/Kg, dose level Low, time 5 day

CC(C)NNC(=O)c1ccncc1 [IPRONIAZID]
ABSOLUTE BASOPHIL [1]: 0 CELLS/uL
ABSOLUTE EOSINOPHIL [1]: 0 CELLS/uL
ABSOLUTE LYMPHOCYTE [1]: 9249.33 CELLS/uL
ABSOLUTE MONOCYTE [1]: 21.67 CELLS/uL
ABSOLUTE SEGMENTED NEUTROPHIL [1]: 762.33 CELLS/uL
BASOPHIL [1]: 0%
EOSINOPHIL [1]: 0%
ERYTHROCYTE COUNT [1]: 5.56 x10E6/uL
HEMATOCRIT [1]: 34.37%
HEMOGLOBIN [1]: 13.47 G/DL
LEUKOCYTE COUNT [1]: 10.03 x10E3/uL
LYMPHOCYTE [1]: 91.33%
MEAN CORPUSCULAR HEMOGLOBIN [1]: 24.27 pg
MEAN CORPUSCULAR HEMOGLOBIN CONCENTRATION [1]: 39.17 G/DL
MEAN CORPUSCULAR VOLUME [1]: 61.87 fL
MONOCYTE [1]: 0.33%
NEUTROPHIL [1]: 8.33%
NUCLEATED RED BLOOD CELLS [1]: 0 /100WBC
PLATELET COUNT [1]: 1304.67 x10E3/uL
ALANINE AMINOTRANSFERASE [1]: 37 u/L
ALBUMIN [1]: 4.23 G/DL
ALKALINE PHOSPHATASE [1]: 308 u/L
ASPARTATE AMINOTRANSFERASE [1]: 89 u/L
BLOOD UREA NITROGEN [1]: 17 mg/dL
CARBON DIOXIDE [1]: 29 mmol/L
CHLORIDE [1]: 103 MEQ/L
CHOLESTEROL [1]: 80.67 mg/dL
CREATINE PHOSPHOKINASE [1]: 622.67 u/L
CREATININE [1]: 0.21 mg/dL
GLUCOSE [1]: 160.67 mg/dL
LACTATE DEHYDROGENASE [1]: 288.33 u/L
LIPASE [1]: 11.67 u/L
PHOSPHORUS [1]: 12.93 mg/dL
POTASSIUM [1]: 6.22 MEQ/L
SODIUM [1]: 145.5 MEQ/L
TOTAL BILIRUBIN [1]: 0.17 mg/dL
TOTAL PROTEIN [1]: 5.97 G/DL
URIC ACID [1]: 1.77 mg/dL
ABSOLUTE BASOPHIL [2]: 0 CELLS/uL
ABSOLUTE EOSINOPHIL [2]: 126 CELLS/uL
ABSOLUTE LYMPHOCYTE [2]: 15175.33 CELLS/uL
ABSOLUTE MONOCYTE [2]: 93.67 CELLS/uL
ABSOLUTE SEGMENTED NEUTROPHIL [2]: 271.67 CELLS/uL
BASOPHIL [2]: 0%
EOSINOPHIL [2]: 0.67%
ERYTHROCYTE COUNT [2]: 5.63 x10E6/uL
HEMATOCRIT [2]: 33.73%
HEMOGLOBIN [2]: 13.4 G/DL
LEUKOCYTE COUNT [2]: 15.67 x10E3/uL
LYMPHOCYTE [2]: 97%
MEAN CORPUSCULAR HEMOGLOBIN [2]: 23.8 pg
MEAN CORPUSCULAR HEMOGLOBIN CONCENTRATION [2]: 39.77 G/DL
MEAN CORPUSCULAR VOLUME [2]: 59.8 fL
MONOCYTE [2]: 0.67%
NEUTROPHIL [2]: 1.67%
NUCLEATED RED BLOOD CELLS [2]: 0 /100WBC
PLATELET COUNT [2]: 1219.33 x10E3/uL
ALANINE AMINOTRANSFERASE [2]: 39 u/L
ALBUMIN [2]: 3.87 G/DL
ALKALINE PHOSPHATASE [2]: 312.33 u/L
ASPARTATE AMINOTRANSFERASE [2]: 118.33 u/L
BLOOD UREA NITROGEN [2]: 18.67 mg/dL
CARBON DIOXIDE [2]: 22 mmol/L
CHLORIDE [2]: 106.67 MEQ/L
CHOLESTEROL [2]: 56 mg/dL
CREATINE PHOSPHOKINASE [2]: 1266.33 u/L
CREATININE [2]: 0.24 mg/dL
GLUCOSE [2]: 163.67 mg/dL
LACTATE DEHYDROGENASE [2]: 328.67 u/L
LIPASE [2]: 10 u/L
PHOSPHORUS [2]: 11.83 mg/dL
POTASSIUM [2]: 5.65 MEQ/L
SODIUM [2]: 148.8 MEQ/L
TOTAL BILIRUBIN [2]: 0.23 mg/dL
TOTAL PROTEIN [2]: 5.53 G/DL
URIC ACID [2]: 1.8 mg/dL
ABSOLUTE BASOPHIL [3]: 0 CELLS/uL
ABSOLUTE EOSINOPHIL [3]: 0 CELLS/uL
ABSOLUTE LYMPHOCYTE [3]: 11668 CELLS/uL
ABSOLUTE MONOCYTE [3]: 117.67 CELLS/uL
ABSOLUTE SEGMENTED NEUTROPHIL [3]: 1081 CELLS/uL
BASOPHIL [3]: 0%
EOSINOPHIL [3]: 0%
ERYTHROCYTE COUNT [3]: 4.84 x10E6/uL
HEMATOCRIT [3]: 31.5%
HEMOGLOBIN [3]: 12.83 G/DL
LEUKOCYTE COUNT [3]: 12.87 x10E3/uL
LYMPHOCYTE [3]: 90.33%
MEAN CORPUSCULAR HEMOGLOBIN [3]: 26.5 pg
MEAN CORPUSCULAR HEMOGLOBIN CONCENTRATION [3]: 40.77 G/DL
MEAN CORPUSCULAR VOLUME [3]: 65 fL
MONOCYTE [3]: 1%
NEUTROPHIL [3]: 8.67%
NUCLEATED RED BLOOD CELLS [3]: 0 /100WBC
PLATELET COUNT [3]: 1111.67 x10E3/uL
ALANINE AMINOTRANSFERASE [3]: 56 u/L
ALBUMIN [3]: 4.23 G/DL
ALKALINE PHOSPHATASE [3]: 342.67 u/L
ASPARTATE AMINOTRANSFERASE [3]: 108 u/L
BLOOD UREA NITROGEN [3]: 13.67 mg/dL
CARBON DIOXIDE [3]: 26.33 mmol/L
CHLORIDE [3]: 105 MEQ/L
CHOLESTEROL [3]: 80.67 mg/dL
CREATINE PHOSPHOKINASE [3]: 777.33 u/L
CREATININE [3]: 0.24 mg/dL
GLUCOSE [3]: 165.67 mg/dL
LACTATE DEHYDROGENASE [3]: 493.33 u/L
LIPASE [3]: 8.33 u/L
PHOSPHORUS [3]: 13.3 mg/dL
POTASSIUM [3]: 6.06 MEQ/L
SODIUM [3]: 144.47 MEQ/L
TOTAL BILIRUBIN [3]: 0.17 mg/dL
TOTAL PROTEIN [3]: 5.67 G/DL
URIC ACID [3]: 1.5 mg/dL
ABSOLUTE BASOPHIL [4]: 0 CELLS/uL
ABSOLUTE EOSINOPHIL [4]: 175.33 CELLS/uL
ABSOLUTE LYMPHOCYTE [4]: 14127.33 CELLS/uL
ABSOLUTE MONOCYTE [4]: 0 CELLS/uL
ABSOLUTE SEGMENTED NEUTROPHIL [4]: 1364 CELLS/uL
BASOPHIL [4]: 0%
EOSINOPHIL [4]: 1%
ERYTHROCYTE COUNT [4]: 5.43 x10E6/uL
HEMATOCRIT [4]: 34.73%
HEMOGLOBIN [4]: 13.6 G/DL
LEUKOCYTE COUNT [4]: 15.67 x10E3/uL
LYMPHOCYTE [4]: 90.33%
MEAN CORPUSCULAR HEMOGLOBIN [4]: 25.07 pg
MEAN CORPUSCULAR HEMOGLOBIN CONCENTRATION [4]: 39.17 G/DL
MEAN CORPUSCULAR VOLUME [4]: 63.97 fL
MONOCYTE [4]: 0%
NEUTROPHIL [4]: 8.67%
NUCLEATED RED BLOOD CELLS [4]: 0 /100WBC
PLATELET COUNT [4]: 1364.67 x10E3/uL
ALANINE AMINOTRANSFERASE [4]: 58.33 u/L
ALBUMIN [4]: 4.33 G/DL
ALKALINE PHOSPHATASE [4]: 411.67 u/L
ASPARTATE AMINOTRANSFERASE [4]: 88.33 u/L
BLOOD UREA NITROGEN [4]: 18.33 mg/dL
CARBON DIOXIDE [4]: 27.33 mmol/L
CHLORIDE [4]: 103 MEQ/L
CHOLESTEROL [4]: 72 mg/dL
CREATINE PHOSPHOKINASE [4]: 231.67 u/L
CREATININE [4]: 0.23 mg/dL
GLUCOSE [4]: 179 mg/dL
LACTATE DEHYDROGENASE [4]: 197.33 u/L
LIPASE [4]: 11 u/L
PHOSPHORUS [4]: 14.8 mg/dL
POTASSIUM [4]: 6.06 MEQ/L
SODIUM [4]: 146.8 MEQ/L
TOTAL BILIRUBIN [4]: 0.2 mg/dL
TOTAL PROTEIN [4]: 6.07 G/DL
URIC ACID [4]: 2.07 mg/dL
